{
  "source": "patent US20180028681A1",
  "about": "“COMBINATION THERAPY USING A CD19-ADC AND VINCRISTINE” (SEATTLE GENETICS, INC., priority 2015, published 2018)",
  "type_in_all_cases": "in vivo, mouse",
  "key": {"RS4; 11": {"test_system": "RS4; 11", "conditions": "C.B-17 SCID mice; treatment 1 day post implant; SGN-CD19A 0.3 mg/kg every four days x4; cyclophosphamide 30, vincristine 0.375, doxorubicin 2.475 mg/kg single iv; dexamethasone 15 mg/kg ip daily x5; terminated day 154", "protocol": "(§1) Establishment of cell line xenografts: NALM-6 (DSMZ, Braunschweig, Germany) and RS4; 11 (ATCC, Manassas, Va.) cell lines were cultured in RPMI 1640 media, supplemented with Heat Inactivated Fetal Bovine serum (10%) and Penicillin/Streptomycin(1%) (Gibco, Grand Island, N.Y.). Cells were maintained in a humidified atmosphere at 37° C. and 5% CO2. For NALM-6 cell implantation, 1.0×10^5 cells in 200 ul PBS were injected into the tail vein of female C.B-17 SCID (Harlan Laboratories, Livermore, Calif.) mice. Mice were randomly assigned to treatment groups and treatment was given seven days post cell implant. For RS4; 11 cell implantation, 1.8×10^6 cells in 200 ul PBS were implanted into the tail vein of female C.B-17 SCID mice. Mice were randomly assigned to treatment groups. Treatment was given one day post cell implant. Treatment in the NALM-6 consisted of a single dose of SGN-CD19A at 1.0 mg/kg; in RS4; 11, SGN-CD19A was given once every four days for four doses at 0.3 mg/kg. Cyclophosphamide, 30 mg/kg (Baxter, Deefield, Ill.), Vincristine, 0.375 mg/kg (Hospira, Lake Forest, Ill.), and Doxorubicin, 2.475 mg/kg (Pfizer, NY, NY) were combined and administered as a single dose via intravenous injection into the lateral tail vein. Dexamethasone, 15 mg/kg (APP Pharmaceuticals, Schaumberg, Ill.), was given daily for five days via intraperitoneal injection. For each xenograft model, mice were monitored daily and body weights were collected at least once per week. Mice were removed from experiment at the onset of clinical disease signs (hind limb weakness, piloerection, hunched posture) or weight loss in excess of 20% of initial body weight.\n(§2) Cell line-derived xenografts were used to investigate the median survival time for the combination of SGN-CD19A and CVAD, as well as SGN-CD19A and each of the components of CVAD. Either NALM-6 or Rs4; 11 cells were implanted into CB-17 SCID mice. Ten mice were assigned to each treatment group. […] SGN-CD19A and CVAD were administered at sub-optimal doses. Results are shown in FIGS. 4A and 4B and Tables 1 and 2. […] For the Rs4; 11 experiment, the experiment was terminated on day 154."}, "NALM-6": {"test_system": "NALM-6", "conditions": "C.B-17 SCID mice; treatment 7 days post implant; SGN-CD19A single dose 1.0 mg/kg; cyclophosphamide 30, vincristine 0.375, doxorubicin 2.475 mg/kg single iv; dexamethasone 15 mg/kg ip daily x5; survivors sacrificed at 133 days", "protocol": "as §1, §2"}, "[1]": {"test_system": "ALL patient donor 06343 xenograft", "assay": "Disease burden (blast cells) in bone marrow, patient-derived ALL xenograft donor 06343", "conditions": "for Disease Burden in Bone Marrow, CD45/10% Mean: NOD-scid IL2Rγ null mice, dosed at 38% blasts in sentinels, bone marrow counts day 14 post-dose", "source_text": "Establishment of patient-derived xenografts: NOD-scid IL2Rγ null mice were used as hosts for patient-derived xenografts. Twenty-four hours prior to cell implant, mice received 1.0 Gy irradiation using a Radsource 2000 irradiator (Radsource technologies, Suwanee, Ga.). Frozen bone marrow isolates of mononuclear cells from patients with acute lymphoblastic leukemia were obtained from […] (Alameda, Calif.). Cells were thawed in a warm water bath. After thaw, RPMI-1640 media was slowly added to the bone marrow isolate suspension. The cells were washed with PBS and centrifuged to remove DMSO in freezing media. After centrifugation, the cells were suspended in PBS. For, implantation, 3.6×10^6 cells were injected into the tail vein of female NOD-scid IL2Rγ null mice designated as donor, or passage 0 mice. Approximately 7 weeks after implant, mice were euthanized. Bone marrow and spleen were collected using sterile technique. Spleens were mechanically disrupted using a sterile syringe end and mesh filter. Connective tissues from spleens were filtered out using 40um filters. Splenocytes and bone marrow cells were treated with red blood cell buffer lysis (BD lysis buffer, BD biosciences, San Jose, Calif.) for 15 minutes at room temperature. A sample of the cells was utilized for confirmation of engraftment. The percentage of blast cells was determined by the number of CD45 FITC, CD19 PE-Cy.5 (BD Biosciences, San Jose, Calif.) CD10 APC (Biolegend, San Diego, Calif.) triple positive cells via flow cytometry (FACScalibur, BD Biosciences, San Jose, Calif.). The majority of the cells (passage 1) were placed into freezing media (90% Heat inactivated fetal bovine serum and 10% DMSO). Subsequent xenograft experiments utilized passage 1 cells. Cells were implanted in the same manner done for donor mice (passage 0 mice). Starting 14-21 days post implant, 2-3 sentinel mice were euthanized to determine the percentage blast cells in the bone marrow. Once the percentage of blast cells was at 25-50% of the bone marrow mononuclear cells mice were randomly placed into treatment groups. SGN-CD19A and non-specific ADC (also called h00-1269) were administered as a single intraperitoneal injection at 1.0, 3.0, or 10.0 mg/kg dose. Cyclophosphamide at 15 or 30 mg/kg (Baxter, Deefield, Ill.), Vincristine at 0.188 or 0.375 mg/kg (Hospira, Lake Forest, Ill.), and Doxorubicin at 1.24 or 2.475 mg/kg (Pfizer, NY, NY) were combined and administered as a single dose via intravenous injection into the lateral tail vein. Dexamethasone at 7.5 or 15 mg/kg (APP Pharmaceuticals, Schaumberg, Ill.) was given daily via intraperitoneal injection for five days. At pre-determined times post treatment, mice were euthanized for collection of bone marrow and determination of blast cell percentage via flow cytometry.\nThe response of human patient-derived ALL cells to single agent SGN-CD19A or CVAD was determined in mouse xenograft models. Bone marrow isolates from patients with ALL (donor 06343 and donor 90811) were used to establish xenografts in NOD-scid IL2Rgamma^null mice. After engraftment, patient-derived bone marrow cells were frozen and are referred to as passage 1 cells. Passage 1 cells were implanted into mice and assessed for presence of blast cells (CD45/CD10/CD19 positive cells). After blast cells were between 25-50% of the bone marrow, mice were placed in treatment groups (n=3 mice per time point). Mice were given either 1, 3, or 10 mg/kg of SGN-CD19A or 10 mg/kg of a non-specific ADC conjugated to MMAF (also called h00-1269). A maximum tolerated dose (MTD) of CVAD had previously been determined in the same mouse strain. Mice were given either CVAD at the MTD or at 50% of the MTD.\nThe response of human patient-derived ALL cells to the combination of SGN-CD19A and CVAD was also determined in the mouse xenograft model. Patient samples were engrafted as described above."}},
  "data": [
    {"molecule": "O=P1(N(CCCl)CCCl)NCCCO1", "note": "(stereo not shown) [Cyclophosphamide]", "values": [
      {"measurement": "Median Survival", "setting": "RS4; 11", "value": 58, "unit": "days"},
      {"measurement": "Median Survival", "setting": "NALM-6", "value": 38, "unit": "days"},
      {"measurement": "Disease Burden in Bone Marrow, CD45/10% Mean", "setting": "[1]", "value": 90, "unit": "%"}
    ]},
    {"molecule": "C[C@@H]1C[C@H]2[C@@H]3CCC4=CC(=O)C=C[C@]4(C)[C@@]3(F)[C@@H](O)C[C@]2(C)[C@@]1(O)C(=O)CO", "note": "[Dexamethasone]", "values": [
      {"measurement": "Median Survival", "setting": "RS4; 11", "value": 80, "unit": "days"},
      {"measurement": "Median Survival", "setting": "NALM-6", "value": 39, "unit": "days"},
      {"measurement": "Disease Burden in Bone Marrow, CD45/10% Mean", "setting": "[1]", "value": 82.5, "unit": "%"}
    ]},
    {"molecule": "COc1cccc2c1C(=O)c1c(O)c3c(c(O)c1C2=O)C[C@@](O)(C(=O)CO)C[C@@H]3O[C@H]1C[C@H](N)[C@H](O)[C@H](C)O1", "note": "[Doxorubicin]", "values": [
      {"measurement": "Median Survival", "setting": "RS4; 11", "value": 62, "unit": "days"},
      {"measurement": "Median Survival", "setting": "NALM-6", "value": 44, "unit": "days"},
      {"measurement": "Disease Burden in Bone Marrow, CD45/10% Mean", "setting": "[1]", "value": 69.2, "unit": "%"}
    ]},
    {"molecule": "CC[C@]1(O)C[C@H]2CN(CCc3c([nH]c4ccccc34)[C@@](C(=O)OC)(c3cc4c(cc3OC)N(C=O)[C@H]3[C@@](O)(C(=O)OC)[C@H](OC(C)=O)[C@]5(CC)C=CCN6CC[C@]43[C@@H]65)C2)C1", "note": "[Vincristine]", "values": [
      {"measurement": "Median Survival", "setting": "RS4; 11", "value": 79, "unit": "days"},
      {"measurement": "Median Survival", "setting": "NALM-6", "value": 47, "unit": "days"},
      {"measurement": "Disease Burden in Bone Marrow, CD45/10% Mean", "setting": "[1]", "value": 69.1, "unit": "%"}
    ]},
    {"molecule": "SGN-CD19A: CD19-directed antibody-drug conjugate: humanized antibody hBU12, maleimidocaproyl linker, monomethyl auristatin F (MMAF); average four drugs per antibody (conjugate) VL: EIVLTQSPATLSLSPGERATLSCSASSSVSYMHWYQQKPGQAPRLLIYDTSKLASGIPARFSGSGSGTDFTLTISSLEPEDVAVYYCFQGSVYPFTFGQGTKLEIKR VH: QVQLQESGPGLVKPSQTLSLTCTVSGGSISTSGMGVGWIRQHPGKGLEWIGHIWWDDDKRYNPALKSRVTISVDTSKNQFSLKLSSVTAADTAVYYCARMELWSYYFDYWGQGTLVTVSS", "values": [
      {"measurement": "Median Survival", "setting": "RS4; 11", "value": 85, "unit": "days"},
      {"measurement": "Median Survival", "setting": "NALM-6", "value": 55, "unit": "days"},
      {"measurement": "Disease Burden in Bone Marrow, CD45/10% Mean", "setting": "[1]", "value": 92.5, "unit": "%"},
      {"measurement": "single agent dose response, blast cells in the bone marrow", "setting": "[1]; SGN-CD19A 1, 3 or 10 mg/kg, CVAD at MTD or 50% of MTD, FIGS. 2A, 2C", "value": "decreasing amounts of blast cells in the bone marrow"}
    ]}
  ]
}
